# Measured values taken from patent US5321041A, “Diphenylpyrrolylfuran derivatives” (Nihon Iyakuhin Kogyo Co., Ltd., priority 1992, dated 1994).
# pIC50: −log10 of the molar value. Like-named read-outs stand apart in the source and are kept apart here.
# Tests used:
# 5-lipoxygenase = biological target: T1, 5-lipoxygenase (Cavia porcellus, UniProt A0A286X958); experiment: Inhibitory activity on 5-lipoxygenase; type: biochemical, guinea pigs; details: 5-HETE generation, 20 μM 14C-arachidonic acid, pH 7.4, 37° C., 10 minutes
# T1 construct: crude enzyme fraction prepared from peritoneal exudated cells of guinea pigs; endogenous in cells; host or cells: guinea pig peritoneal exudate cells (induced by intraperitoneal casein), crude enzyme fraction
# T1 sequence (A0A286X958 1-674): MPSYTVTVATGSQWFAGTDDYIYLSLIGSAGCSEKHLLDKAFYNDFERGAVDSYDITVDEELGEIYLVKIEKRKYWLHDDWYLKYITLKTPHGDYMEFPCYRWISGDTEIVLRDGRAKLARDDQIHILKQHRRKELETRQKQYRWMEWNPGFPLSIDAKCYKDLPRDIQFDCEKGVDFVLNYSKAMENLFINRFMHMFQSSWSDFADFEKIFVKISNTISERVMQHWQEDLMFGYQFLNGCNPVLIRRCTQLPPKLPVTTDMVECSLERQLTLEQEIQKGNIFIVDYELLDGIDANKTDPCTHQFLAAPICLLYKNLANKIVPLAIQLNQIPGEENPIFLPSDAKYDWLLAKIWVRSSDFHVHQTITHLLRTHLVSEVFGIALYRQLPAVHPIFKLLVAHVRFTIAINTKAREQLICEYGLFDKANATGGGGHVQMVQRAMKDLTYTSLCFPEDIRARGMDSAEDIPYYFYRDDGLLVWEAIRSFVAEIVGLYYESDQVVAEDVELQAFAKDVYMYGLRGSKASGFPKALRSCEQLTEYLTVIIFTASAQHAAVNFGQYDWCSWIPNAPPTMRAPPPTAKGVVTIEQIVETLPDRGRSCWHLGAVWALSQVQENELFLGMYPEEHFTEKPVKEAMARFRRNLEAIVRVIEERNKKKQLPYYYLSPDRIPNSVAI
# Description: EXPERIMENT 2: INHIBITORY ACTIVITY ON 5-LIPOXYGENASE
# 5-Lipoxygenase activity was determined according to the method described by Ochi et al., J. Biol. Chem.,258, p. 5754, 1983 using a crude enzyme fraction prepared from peritoneal exudated cells of guinea pigs which were induced by intraperitoneal injection of 2% case in solution. A solution of a test drug was mixed with a reaction solution (2mM ATP, 1 mM glutathione,and the enzyme fraction in 50 mM phosphate buffer, PH 7.4) and the mixture was pre-incubated at 37° C. for 5 minutes. Calcium chloride (1 mM) and 20 μM^14 C-arachidonic acid were added to the mixture, and then the mixture was subjected to a reaction at 37° C. for 10 minutes. After the completion of the reaction, the product was immediately extracted, dissolved in chloroform/methanol (2:1), and developed by thin-layer chromatography. Radioactivity of the 5-hydroxyeicosatetraenoic acid (5-HETE) fraction was measured using a liquid scintillation counter. Inhibitory rate of each drug-treated group against 5-HETE generation was obtained in comparison with the solvent-treated control, and IC50 was calculated according to the probit method.
# [1] = test system: paw edema induced by carageenin; experiment: Inhibitory activity on paw edema induced by carageenin; type: in vivo, Wistar rats; details: rat, oral, 10 mg/kg, 3 hours after carageenin
# Description: EXPERIMENT 4: INHIBITORY ACTIVITY ON PAW EDEMA INDUCED BY CARAGEENIN
# Wistar rats (body weight: 110-130 g) starved overnight were orally administered with a test drug suspended in 0.5% CMC-Na, and after one hour, 0.1 ml of 1% carageenin solution (picnin-A, Zushi Kagaku) was subcutaneously injected into the right hind leg paw of each rat. Three hours later, the volume of the paw was determined by means of a plethysmometer (Model 7150, Ugo Basile Co.,Ltd.) and the rate of edema was evaluated in comparison with the volume of the paw before the carageenin injection as 100%. Inhibitory rate of each drug-treated group against edema formation was calculated in comparison with the solvent-treated control.
# [2] = test system: auricle edema induced by oxazolone; experiment: Effect on auricle edema induced by oxazolone (delayed allergy); type: in vivo, ICR mice; details: mouse, oral, 10 mg/kg × 2 (30 minutes before, 6 hours after), 24 hours
# Description: EXPERIMENT 6: EFFECT ON AURICLE EDEMA INDUCED BY OXAZOLONE (DELAYED ALLERGY)
# […]. The mice were sensitized by the application of 0.1 ml of 0.5% oxazolone in ethanol to shaven abdominal skin. Five days later, inflammation was induced by applying 10 μl of 0.5% oxazolone in acetone to front and back surfaces Of the right auricle. After 24 hours, the thicknesses of the left and right auricles were measured by a dial gauge, and the rate of edema of the right auricle was calculated in comparison with the left auricle (normal). A test drug was suspended in 0.5% CMC--Na and orally administered twice to each mouse , i.e., 30 minutes before and 6 hours after the inflammation-inducing treatment. Inhibitory rate of each drug-treated group against edema was calculated in comparison with the solvent-treated control.
# [3] = test system: platelet aggregation (platelet rich plasma); experiment: Inhibitory activity on platelet aggregation; type: cell-based, Japanese native white domestic rabbits; details: Oryctolagus cuniculus, rabbit PRP, 37° C.
# Description: EXPERIMENT 8: INHIBITORY ACTIVITY ON PLATELET AGGREGATION
# Blood of Japanese native white domestic rabbits was taken into a plastic centrifugal tube added with 1/10 in volume of 3.8% sodium citrate solution, and then, platelet rich plasma (PRP) containing 5 to 6×10^8 /ml platelets was obtained by centrifugation for 10 minutes. under 120×G. To 450 μl of the PRP, 25 μl of a solution containing the test drug (Compound 109) dissolved at a desired concentration was added.
# ddY mice = experiment: Acute toxicity; type: in vivo; details: mouse, oral, 600 mg/kg, observed for 2 weeks
# Excerpt: EXPERIMENT 9: ACUTE TOXICITY
smiles,measurement,setting,value
"CCc1ccc(-c2cc(-c3ccc(OC)cc3)c(-c3ccc(OC)cc3)o2)n1CC(=O)O [Compound 109, 2,3-di-(4-methoxyphenyl)-5-(1-carboxymethyl-5-ethyl-2-pyrrolyl)furan]",pIC50,5-lipoxygenase,6.07
same,Inhibition on Edema (%),[1],49.5%
same,Inhibition on Edema (%),[2],46.8%
same,pIC50,"[3]; arachidonic acid (250 μM), read-out: IC50 against platelet aggregation induced by arachidonic acid",5.82
same,pIC50,"[3]; collagen (5 μg/ml), read-out: IC50 against platelet aggregation induced by collagen",4.88
same,Dead Mice/Total Mice,ddY mice,0/5
